Here are results for 23 molecules from ChEMBL document CHEMBL5214962, “Improving lipophilicity of 5-(1-acetyl-5-phenylpyrazolidin-3-ylidene)-1,3-dimethylbarbituric acid increases its efficacy to activate hypoxia-inducible factors” (Bioorg Med Chem, 2022).

Data set [1] in a line: Cytotoxicity against human SK-N-BE(2)-C expressing HRE-NLuc reporter system assessed as reduction in cell viability incubated for 24 hrs by CCK-8 assay. The class given is toxicity, cell-based. To be noted: SK-N-BE(2)-C cells expressing HRE-NLuc reporter system, read-out: LC50. Background: Formazan colour is commonly taken as a measure of viable cells.
Data set [2] has as its system SK-N-BE(2)-C. Put plainly: Activation of HIF-alpha transcriptional activity in human SK-N-BE(2)-C expressing HRE-NLuc reporter system assessed as compound concentration require for 5 fold increase in NLuc luciferase activity incubated for 24 hrs by Nano-Glo luciferase assay. The class given is cell-based.
In data set [3] the target is Endothelial PAS domain-containing protein 1 (Homo sapiens) (UniProt Q99814). Put plainly: Induction of HIF-2alpha stabilization in human Hep3B cells assessed as […] at 1 to 100 uM incubated for 24 hrs by immunoblot analysis. Type of data set: cell-based. To be noted: filed as activator, dose 1-100 µM, DDE = dose-dependent effect.
The target of data set [4] is Hypoxia-inducible factor 1-alpha (Homo sapiens) (UniProt Q16665). Put plainly: Induction of HIF-1alpha stabilization in human Hep3B cells assessed as HIF-1alpha level at 1 to 100 uM incubated for 24 hrs by immunoblot analysis. The class given is cell-based. To be noted: filed as activator, dose 1-100 µM, DDE = dose-dependent effect. (In general: In western blotting, separated proteins are transferred to a membrane and probed.)

For data set [5] the target is unchanged. Put plainly: Induction of HIF-1alpha stabilization in human Hep3B cells assessed as HIF-1alpha level at 16 to 1000 nM incubated for 24 hrs by immunoblot analysis. The class given is cell-based. To be noted: filed as activator, dose 16-1000 nM, DDE = dose-dependent effect.
Data set [6] relates to Hep3B. Description: Activation of HIF dependent pathway in human Hep3B cells assessed as increase in EPO mRNA expression level at 10 to 100 uM incubated for 24 hrs by RT-qPCR analysis. The class given is cell-based. To be noted: filed as activator, dose 10-100 µM.
The test system of data set [7] is Hep3B. Put plainly: Activation of HIF dependent pathway in human Hep3B cells assessed as increase in CA9 mRNA expression level at 10 to 100 uM incubated for 24 hrs by RT-qPCR analysis. The class given is cell-based. To be noted: filed as activator, dose 10-100 µM. (In general: In qPCR the cycle at which signal appears reflects the starting amount.)
The target of data set [8] is Endothelial PAS domain-containing protein 1 (Homo sapiens) (UniProt Q99814). Put plainly: Induction of HIF-2alpha stabilization in human Hep3B cells assessed as […] at 16 to 1000 nM incubated for 24 hrs by immunoblot analysis. The class given is cell-based. To be noted: filed as activator, dose 16-1000 nM, DDE = dose-dependent effect.

Active and inactive are the calls of the source. The rule behind the calls is not given here.

Chain of Endothelial PAS domain-containing protein 1 (Homo sapiens) (Q99814 whole entry, the tested form may be a part): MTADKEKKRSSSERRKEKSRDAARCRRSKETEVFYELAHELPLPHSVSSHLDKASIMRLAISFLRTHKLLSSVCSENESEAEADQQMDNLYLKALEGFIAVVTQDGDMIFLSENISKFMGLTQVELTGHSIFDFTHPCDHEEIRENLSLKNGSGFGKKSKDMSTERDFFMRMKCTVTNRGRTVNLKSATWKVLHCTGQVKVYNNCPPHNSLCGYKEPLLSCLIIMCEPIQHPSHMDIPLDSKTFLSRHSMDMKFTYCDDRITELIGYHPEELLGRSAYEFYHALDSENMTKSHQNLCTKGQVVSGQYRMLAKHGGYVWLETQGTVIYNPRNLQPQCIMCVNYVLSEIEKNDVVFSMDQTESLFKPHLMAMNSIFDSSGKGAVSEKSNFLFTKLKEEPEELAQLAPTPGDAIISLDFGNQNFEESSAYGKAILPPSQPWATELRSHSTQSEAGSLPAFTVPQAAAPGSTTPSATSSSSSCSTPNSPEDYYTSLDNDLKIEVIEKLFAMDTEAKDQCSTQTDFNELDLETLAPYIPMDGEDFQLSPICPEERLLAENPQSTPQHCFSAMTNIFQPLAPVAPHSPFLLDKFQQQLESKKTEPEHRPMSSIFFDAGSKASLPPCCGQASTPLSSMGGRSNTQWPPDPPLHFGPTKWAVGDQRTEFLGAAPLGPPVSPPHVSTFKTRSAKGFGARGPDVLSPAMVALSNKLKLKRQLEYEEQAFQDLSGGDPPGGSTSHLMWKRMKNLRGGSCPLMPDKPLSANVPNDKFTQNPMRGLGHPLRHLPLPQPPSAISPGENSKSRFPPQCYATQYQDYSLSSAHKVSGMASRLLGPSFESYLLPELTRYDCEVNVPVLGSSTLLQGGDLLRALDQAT
Chain of Hypoxia-inducible factor 1-alpha (Homo sapiens) (Q16665 whole entry, looked up): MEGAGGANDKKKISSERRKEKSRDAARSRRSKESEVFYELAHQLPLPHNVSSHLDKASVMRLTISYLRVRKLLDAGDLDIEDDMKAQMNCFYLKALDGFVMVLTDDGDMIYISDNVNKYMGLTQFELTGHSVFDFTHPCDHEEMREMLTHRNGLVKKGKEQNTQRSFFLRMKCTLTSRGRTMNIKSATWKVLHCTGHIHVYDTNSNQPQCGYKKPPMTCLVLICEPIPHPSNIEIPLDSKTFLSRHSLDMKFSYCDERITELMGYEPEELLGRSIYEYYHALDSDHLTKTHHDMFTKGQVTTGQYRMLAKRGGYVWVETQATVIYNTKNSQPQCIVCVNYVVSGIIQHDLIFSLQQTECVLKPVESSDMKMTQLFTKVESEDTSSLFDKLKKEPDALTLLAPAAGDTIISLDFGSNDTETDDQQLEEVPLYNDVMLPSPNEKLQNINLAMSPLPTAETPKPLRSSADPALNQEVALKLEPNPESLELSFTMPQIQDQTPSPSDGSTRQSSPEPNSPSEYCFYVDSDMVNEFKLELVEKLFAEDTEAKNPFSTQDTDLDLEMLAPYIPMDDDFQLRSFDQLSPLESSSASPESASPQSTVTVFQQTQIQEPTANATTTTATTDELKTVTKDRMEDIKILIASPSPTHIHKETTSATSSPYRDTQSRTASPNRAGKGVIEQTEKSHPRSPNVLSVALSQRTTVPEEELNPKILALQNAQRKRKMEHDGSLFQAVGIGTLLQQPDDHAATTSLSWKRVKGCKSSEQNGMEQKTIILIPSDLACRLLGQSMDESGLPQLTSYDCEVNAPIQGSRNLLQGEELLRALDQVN

`CC(C)C(=O)N1NC(=C2C(=O)N(C3CCCCC3)C(=O)N(C3CCCCC3)C2=O)CC1c1ccccc1` (centres undefined): the CC50 at 24 h in data set [1] is over 100 µM. Besides, the Activity in data set [2] (filed as activator) worked out at 0.364 µM.

For `CC(=O)N1NC(=C2C(=O)N(C)C(=O)N(C)C2=O)CC1c1ccccc1` (centres undefined), the CC50 at 24 h in data set [1] was over 100 µM. In addition, the Activity entry in data set [3] was “Dde”; in data set [2] (filed as activator) it was 14.3 µM; in data set [4], “Dde”.

With `COc1ccc(C2CC(=C3C(=O)N(C)C(=O)N(C)C3=O)NN2C(C)=O)cc1` (centres undefined), the CC50 at 24 h in data set [1] was over 100 µM. Besides, the Activity in data set [2] (filed as activator) came out at 19.5 µM.

Turning to `CCCC(=O)N1NC(=C2C(=O)N(C)C(=O)N(C)C2=O)CC1c1ccccc1` (centres undefined), in data set [1], the CC50 at 24 h is over 100 µM. Also, the Activity in data set [2] (filed as activator) amounted to 4.85 µM.

On to `CCCCCCCCCC(=O)N1NC(=C2C(=O)N(C)C(=O)N(C)C2=O)CC1c1ccccc1` (centres undefined), for which the CC50 at 24 h in data set [1] was over 100 µM. For the same molecule, the Activity in data set [2] (filed as activator) stood at 0.153 µM.

Turning to `CCC(=O)N1NC(=C2C(=O)N(C)C(=O)N(C)C2=O)CC1c1ccccc1` (centres undefined), in data set [1], the CC50 at 24 h is over 100 µM. Also, the Activity in data set [2] (filed as activator) came to 6.53 µM.

With `Cc1nc(C(=O)NCC(=O)O)c(O)c2ccc(Oc3ccccc3)cc12`, the Activity entry in data set [3] and in data set [4] was “Dde” in each case.

In the case of `CCCCCCCCCC(=O)N1NC(=C2C(=O)N(C3CCCCC3)C(=O)N(C3CCCCC3)C2=O)CC1c1ccccc1` (centres undefined), the CC50 at 24 h in data set [1] is over 100 µM. Besides, the Activity in data set [2] was over 100 µM.

In the case of `CC(=O)N1NC(=C2C(=O)N(C)C(=O)N(C)C2=O)CC1c1ccc(Cl)cc1` (centres undefined), the CC50 at 24 h in data set [1] is over 100 µM. The Activity in data set [2] (filed as activator) worked out at 9.1 µM.

Consider `CCCCCCCCc1ccc(C2CC(=C3C(=O)N(C)C(=O)N(C)C3=O)NN2C(C)=O)cc1` (centres undefined), for which, in data set [1], the CC50 at 24 h was over 100 µM. Further, in data set [2] (filed as activator), the Activity worked out at 12.9 µM.

In the case of `CCCCCC(=O)N1NC(=C2C(=O)N(C3CCCCC3)C(=O)N(C3CCCCC3)C2=O)CC1c1ccccc1` (centres undefined), the CC50 at 24 h in data set [1] was over 100 µM. Also, the Activity in data set [2] (filed as activator) is 2.41 µM.

As to `CC(=O)N1NC(=C2C(=O)N(C)C(=O)N(C)C2=O)CC1c1ccc2ccccc2c1` (centres undefined), the CC50 at 24 h in data set [1] was over 100 µM. For the same molecule, the Activity in data set [2] (filed as activator) was found to be 7.67 µM.

`COc1cccc(C2CC(=C3C(=O)N(C)C(=O)N(C)C3=O)NN2C(C)=O)c1Cl` (centres undefined): in data set [1], the CC50 at 24 h is over 100 µM. Also, the Activity in data set [2] (filed as activator) is 26.1 µM.

In the case of `CCCCCC(=O)N1NC(=C2C(=O)N(C)C(=O)N(C)C2=O)CC1c1ccccc1` (centres undefined), the CC50 at 24 h in data set [1] was over 100 µM. Moreover, in data set [2] (filed as activator), the Activity came out at 0.96 µM.

As to `CC(=O)N1NC(=C2C(=O)N(C)C(=O)N(C)C2=O)CC1c1ccc(C)cc1` (centres undefined), the CC50 at 24 h in data set [1] is over 100 µM. Also, the Activity in data set [2] (filed as activator) worked out at 5.84 µM.

`CC(=O)N1NC(=C2C(=O)N(C)C(=O)N(C)C2=O)CC1c1ccc(F)cc1` (centres undefined): the CC50 at 24 h in data set [1] was over 100 µM. The Activity in data set [2] (filed as activator) worked out at 16.5 µM.

Turning to `CCC(=O)N1NC(=C2C(=O)N(C)C(=O)N(C)C2=O)CC1c1ccc(-c2ccccc2)cc1` (centres undefined), in data set [1], the CC50 at 24 h was over 100 µM. The Activity in data set [2] (filed as activator) came to 3.87 µM.

Turning to `CC(=O)N1NC(=C2C(=O)N(C)C(=O)N(C)C2=O)CC1c1ccc(Oc2ccccc2)cc1` (centres undefined), the CC50 at 24 h in data set [1] was over 100 µM. In addition, the Activity in data set [2] (filed as activator) amounted to 6.82 µM.

`CC(=O)N1NC(=C2C(=O)N(C)C(=O)N(C)C2=O)CC1c1ccc(-c2ccccc2)cc1` (centres undefined): the CC50 at 24 h in data set [1] is over 100 µM. Also, the Activity in data set [2] (filed as activator) amounted to 3.88 µM.

Regarding `CCCC(=O)N1NC(=C2C(=O)N(C3CCCCC3)C(=O)N(C3CCCCC3)C2=O)CC1c1ccccc1` (centres undefined), the CC50 at 24 h in data set [1] was over 100 µM. Moreover, the Activity result in data set [5] is “Dde”; in data set [3], “Dde”; in data set [8], “Dde”; in data set [2] (filed as activator), 0.441 µM; in data set [4] it was “Dde”. For the same molecule, the outcome in data set [6] and in data set [7] was Active.

On to `CCC(=O)N1NC(=C2C(=O)N(C3CCCCC3)C(=O)N(C3CCCCC3)C2=O)CC1c1ccccc1` (centres undefined), for which the CC50 at 24 h in data set [1] is over 100 µM. Moreover, the Activity in data set [2] (filed as activator) was 0.126 µM.

As to `CC(=O)N1NC(=C2C(=O)N(C3CCCCC3)C(=O)N(C3CCCCC3)C2=O)CC1c1ccccc1` (centres undefined), in data set [1], the CC50 at 24 h was over 100 µM. The Activity in data set [2] (filed as activator) was 0.533 µM.

Turning to `CC(C)C(=O)N1NC(=C2C(=O)N(C)C(=O)N(C)C2=O)CC1c1ccccc1` (centres undefined), the CC50 at 24 h in data set [1] is over 100 µM. Besides, in data set [2] (filed as activator), the Activity amounted to 8.55 µM.
